US10076246B2, “Method and apparatus for noninvasive quantitative detection of fibrosis in normal and viable myocardium by MRI” (Oregon Health & Science University, priority 2007, dated 2018)

How the values were obtained:
[1] = at 37° C.; cited from earlier work
[2] = Ex-vivo contrast-enhanced MRI (3 Tesla, T1 inversion recovery) measurement of gadodiamide partition coefficient / relative distribution volume in postmortem myocardium samples; type: in vitro ADME, human; conditions: 24 hours incubation in ~3 mM gadodiamide-saline solution
Protocol: As an example of the above-described methodology, eight samples of human myocardium were obtained postmortem and a fast spin-echo sequence (3 Tesla) with non-slice selective inversion pulse performed before and after immersion in a gadodiamide saline solution for determination of the gadodiamide partition coefficient. T1 values were calculated from the inversion recovery signal curves. The same samples were fixed in formalin, and the collagen volume fraction was determined by the picrosirius red method using a semi-automated, polarized, digital microscopy system. […] Moreover, there was a significant positive correlation between the two methods, across all three histological categories of myocardial fibrosis (r=0.73; p=0.017). Thus, these findings indicate an expanded potential for contrast enhanced MRI as a novel, non-invasive alternative to histological evaluation, for the quantification of both interstitial and replacement myocardial fibrosis.
In accordance with an exemplary embodiment as outlined briefly above, eight samples of myocardium were obtained from deceased patients. Each sample of ventricular myocardium was 1 to 2 cm in thickness, and cut at the mid-level of the ventricular septum to include left and right ventricular free walls. All samples were stored at −80° C. until time of analysis.
A pre-contrast MRI was performed approximately 10-12 hours after thawing each sample. […] The longitudinal relaxation time T1 of myocardial tissue and saline was measured with a spin-echo MRI pulse sequence with non-slice-selective inversion pulse, and for 12-15 inversion delays (inversion times in the range from T1=50 to 2000 ms). […]
After the first MRI scan, the sample was incubated at 3-4° C. in a gadodiamide—saline solution for 24 hours (initial gadodiamide concentration in saline before immersion of tissue slice was ˜3 mM; saline R1 at 3 Tesla after 24 hours incubation: 3.9±0.3 s^−1). […] The effects of duration of thawing were also evaluated. […] Accordingly, these two sets of samples with different durations of thawing were analyzed separately. […]

With `CNC(=O)CN(CCN(CCN(CC(=O)[O-])CC(=O)NC)CC(=O)[O-])CC(=O)[O-].[Gd+3]` [gadodiamide] as the compound, how does the osmolality [1] read?
Its osmolality is 789 mOsmol/kg water.

And the “mean gadodiamide distribution volume (with 95% confidence interval)” value ([2]; interstitial fibrosis myocardium)?
The value was 0.43+/−0.22.

And the “mean gadodiamide distribution volume (with 95% confidence interval)” value ([2]; normal myocardium)?
Its value is 0.17+/−0.05.

What about the “mean gadodiamide distribution volume (with 95% confidence interval)” value ([2]; replacement fibrosis myocardium) of the same compound?
Its value is 0.46+/−0.05.
